According to patent publication US9783513B2, “STAT3 inhibitors and their anticancer use” (Ohio State Innovation Foundation, priority 2012, dated 2017):
Read-outs that look alike come from different tables or passages of the source.

Legend:
[1] = test system: human sarcoma cell line U2OS; assay: Cell viability (MTT) assay, U2OS; format: cell-based; settings: Homo sapiens
Protocol: (§1) Human sarcoma cell lines (RD2, RH30, U2OS) were seeded in 96-well plates at a density of 3,000 cells per well. The cells were incubated at 37° C. for a period of 24 hours. Different concentrations of LY-5 (0.1-10 μM), LY-3 (0.1-20 μM), and LLL12 (0.1-10 μM) prepared as a 20 mM stock solution in sterile DMSO were added in triplicate to the plates in the presence of 10% FBS. 3-(4,5-Dimethylthiazolyl)-2, 5-diphenyltetrazoliumbromide (MTT) was added to evaluate cell viability. The absorbance was read at 595 nm. IC50 values were determined using SigmaPlot 9.0 Software (Systat Software, Inc., San Jose, Calif.).
(§2) Alternatively, cells were seeded in 96-well plates in triplicate at a density of 3,000 cells per well and given 24 hours to adhere. Cells were then treated with varying concentrations of the inhibitors in the presence of 10% FBS. The cells were incubated for 72 hours at 37° C. 25 μl of MTT dye (Sigma, #M5655) was added to each sample and incubated for 3.5 hours. After this, 100 μl of N,N-dimethylformamide (Sigma, #D4551) solubilization solution was added to each well. The absorbance at 450 nm was read the following day. Half-Maximal inhibitory concentrations (IC50) were determined using Sigma Plot 9.0 software (Systat Software Inc.).
Table 6 below lists specific compounds as well as experimentally determined STAT3 activity in a cell-based assay. The STAT3 activity was determined using the cell viability assays with human sarcoma cell line U2OS as described above. The compounds in Table 6 were synthesized with methods identical or analogous to those described herein. The compound reference numbers (“Ref. No.”) in Table 6 correspond to the compound numbers used in Table 3.

[2] = test system: human sarcoma cell lines (RD2, RH30, U2OS); assay: Cell viability (MTT) assay, different cell lines; format: cell-based; settings: in different cell lines
Protocol: as §1, §2

[3] = test system: STAT3 nuclear translocation; assay: Immunofluorescence assay, nuclear translocation; format: cell-based, human; settings: SJSA; 1 or 2.5 μM; 4 h
Protocol: Cells seeded on glass slides in 6-well plate were cultured in serum-free medium for 24 hours. After the cell density reached about 80%, cells were pretreated with LY5 (1 or 2.5 μM) for 4 hours followed by IL-6 or IFN-γ (50 ng/ml), for 30 min, and were fixed with cold methanol for 15 min. After washing in phosphate-buffered saline (PBS), the slides were blocked with 5% normal goat serum and 0.3% Triton X-100 in PBS (PBST) for 1 hour. The slides were incubated with primary antibodies (1:100) against STAT3 or P-STAT1 proteins (Cell Signaling Technology) overnight at 4° C. Then, the slides were washed with PBST and incubated with goat anti-rabbit FIFC-conjugated secondary antibody (Invitrogen, 1:200). The cells were mounted with Vectashield Hardset mounting medium with DAPI (Vector Laboratories, Burlingame, Calif., USA). Photomicrographs were captured by Leica Microsystems (Bannockburn, Ill., USA).

HUVEC spheroids = assay: 3D in vitro angiogenesis (spheroid sprouting) assay; format: cell-based, human; settings: 300 nM
Protocol: The Endothelial Tube Formation Assay (CBA200, Cell Biolabs Inc., San Diego, Calif., USA) was used in addition to the HUVEC proliferation assay. The ECM gel was thawed at 4° C. and mixed to homogeneity using cooled pipette tips. Cell culture plates (96-well) were bottom-coated with a thin layer of ECM gel (50 μl/well), which was left to polymerize at 37° C. for 60 min. HUVEC (2-3×10^4 cells) were stimulated with VEGF in 150 μl medium and added to each well on the solidified ECM gel. Culture medium was added to each well in the presence or absence of LY5. The plates were incubated at 37° C. for 12-18 hours and the endothelial tubes were quantified using a fluorescent microscope after staining with Calcein AM. Three microscope fields were selected at random and photographed. Tube forming ability was quantified by counting the total number of cell clusters and branches under a 4× objective and […] per well. The results are expressed as mean fold change of branching compared with the control groups. Each experiment was performed at least three times. The 3D in vitro angiogenesis assay was performed essentially as described by manufactures instructions (promo cell). […] The spheroids were photographed after 24 hours and sprout formation assessed as described.

HUVEC = assay: Matrigel invasion assay; format: cell-based, human; settings: 300 nM
Protocol: The Matrigel invasion assays were carried out using Matrigel precoated inserts (BD Bioscience) following the manufacturer's instructions. Six hundred μl of M200 medium with or without VEGF (20 ng/ml, R&D Systems) was placed in the lower wells. Proliferating HUVECs (4×10^5 cells/ml) were pretreated with LY5 (300 nM) and 100 μl of cell suspension was loaded into each of the upper wells. The chambers were incubated for 18-20 hr at 37° C. After incubation, the inserts were removed, and the non-invading cells on the upper surface were removed with a cotton swab. The cells on the lower surface of the membrane were fixed in 100% methanol for 15 minutes, air-dried, and stained with Diff-Quik stain for 2 min. The cells were counted in six individual high-power fields for each membrane condition under a light microscope. Assays were performed in triplicate for each treatment group and the results were expressed as migrated cells per field for each condition.

[4] = Toxicity assessment in tumor-free mice; format: in vivo, mouse; settings: C57BL/6 mice, IP 5 or 10 mg/kg daily, 7 days
Protocol: In order to provide preliminary data regarding potential toxicities from dosing of LY5, C57BL/6 tumor-free mice were treated with daily intraperitoneal (IP) injections of LY5 at 5 or 10 mg/kg for 7 days. […] Additionally, LY5 at a dose of 5 mg/kg via IP for 5 days inhibited growth of OS-1 tumor xenografts (90% tumor volume compared to baseline), while tumor in vehicle treated mice continued to grow (143% tumor volume compared to baseline).

SMILES: NS(=O)(=O)c1cccc2c1C(=O)C=C(Nc1cccnc1)C2=O [LY-5, 5,8-dioxo-6-(pyridin-3-ylamino)-5,8-dihydronaphthalene-1-sulfonamide]
- IC50 ([1]; Table 2, cell line not given, read-out: IC50): 500 nM
- IC50 ([1]; Table 7, read-out: IC50 U2OS): 520 nM
- IC50 ([1]; Table 8, read-out: IC50 values vs. cell lines, U2OS): 520 nM
- IC50 [2]: 500 to 1400 nM
- IFN-γ induced STAT3 nuclear translocation [3]: does not inhibit
- IL-6 induced STAT3 nuclear translocation [3]: inhibits
- VEGF induced sprouting from preformed HUVEC spheroids (HUVEC spheroids): reduce HUVEC vascular sprout length
- VEGF induced sprouting from preformed HUVEC spheroids (HUVEC spheroids; listed as LY5): impaired angiogenic sprouting
- HUVECs invasion through Matrigel coated membranes (HUVEC): prevented
- erythrocyte, leukocyte and platelet parameters [4]: no differences
- organ weights as a percentage of body weight [4]: did not vary significantly
- histologic evaluation of organs ([4]; n=2): no abnormalities
